From patent US12290601B2, “Pharmaceutical composition comprising axitinib” (Synthon B.V., priority 2019, dated 2025)
Where two headings read alike, the source gives them in different places.

Assays:
[1] = cited from earlier work
[2] = among polymorphic forms; cited from earlier work
[3] = Photo-stability of crystalline forms; format: physicochemical; conditions: versus form XLI
Aqueous solubility = format: physicochemical; conditions: versus form XLI

**Q.** Which results are given for `CNC(=O)c1ccccc1Sc1ccc2c(/C=C/c3ccccn3)n[nH]c2c1` [Axitinib, N-methyl-2-({3-[(E)-2-pyridin-2-ylethenyl]-1H-indazol-6-yl}sulfanyl)benzamide]?
**A.** solubility [1]: low solubility; solubility ([1]; gastric, pH 1.7): highly soluble

**Q.** With `CNC(=O)c1ccccc1Sc1ccc2c(/C=C/c3ccccn3)n[nH]c2c1` [Form XLI, N-methyl-2-({3-[(E)-2-pyridin-2-ylethenyl]-1H-indazol-6-yl}sulfanyl)benzamide] as the compound, how does the thermodynamic stability [2] read?
**A.** most thermodynamically stable

**Q.** For `CNC(=O)c1ccccc1Sc1ccc2c(/C=C/c3ccccn3)n[nH]c2c1` [axitinib form IV, N-methyl-2-({3-[(E)-2-pyridin-2-ylethenyl]-1H-indazol-6-yl}sulfanyl)benzamide], which “photo-stability compared to crystalline axitinib form XLI” value [3] is on record?
**A.** less photo-stable

**Q.** What about the “aqueous solubility, fold higher compared to crystalline axitinib form XLI” value (Aqueous solubility) of the same compound?
**A.** 2-3 fold
